Converted amounts (≈) assume the structure as drawn.
Columns and labels:
[1] = tested on: E. coli ATCC 25922; assay: Bactericidal assay in GVB++ buffer (magainin 2 / cefepime); format: cell-based, Escherichia coli; conditions: cefepime alone (1/4 MIC)
Description: FIG. 1 illustrates magainin 2 killing of untreated and cefepime altered E. coli in buffer. […] Cells were diluted as described in Section 6.1.5 and added to tubes containing GVB^++ buffer, with or without cefepime, and varying concentrations of magainin 2 peptide (indicated on the X axis). […] After 180 minutes at 37° C., bacterial survival was determined by measuring the number of colony forming units (cfu) in each tube. Bacterial counts were determined in triplicate. For each magainin concentration: Log Kill=log10 cfu no magainin-log10 cfu containing magainin.
The total reaction mixture was 0.25 ml.

[2] = tested on: E. coli ATCC 25922; assay: Serum bactericidal assay in 40% pooled normal human serum (magainin 2 with antibiotics); format: cell-based, Escherichia coli; conditions: 1/32, 1/16, 1/8 MIC antibiotic; 200 μg/ml magainin 2; 40% pooled normal human serum
[3] = tested on: A645AP (pBR322); assay: Determination of the minimum inhibitory concentration (MIC), A645AP (pBR322); format: cell-based; conditions: Escherichia coli; antibiotic resistant strain A645AP (pBR322)
Description: (§1) The MIC represents the lowest concentration of antimicrobial agent at which complete inhibition occurs. MIC's were determined by the microdilution plate dilution method using AMH (Manual of Clinical Microbiology, Fourth Edition, Lennette, E. H. Ed. in Chief, ASM. 1985. pps 972-977). At least three different determinations were performed with each antibiotic for each strain.
(§2) MIC's were determined by the microdilution plate dilution method using AMH (Manual of Clinical Microbiology, Fourth Edition, Lennette, E. H. Ed. in Chief, ASM. 1985. pps 972-977). At least three different determinations were performed with each antibiotic for each strain.

[4] = tested on: M009; assay: Determination of the minimum inhibitory concentration (MIC), M009; format: cell-based, Pseudomonas aeruginosa; conditions: antibiotic resistant strain M009
Description: as §1, §2

[5] = tested on: E. coli H16; assay: In vivo protection of neutropenic mice from lethal E. coli H16 infection (magainin 2, C-13 peptide, cefepime, amikacin); conditions: neutropenic mice, 2×10^4 E. coli H16 i.p.; two i.m. injections at 1 and 3.5 hr: 1 mg/mouse magainin 2, 0.1 mg/kg cefepime; at least 10 days
Description: The ability of magainin and cefepime combinations to protect mice from a lethal infection of E. coli was examined. Mice were made neutropenic by injection of Cytoxan and then challenged with E. coli. Mice were then divided into four different groups: (1) mice that were given no further treatment; (2) were given magainin 2 or C-13 peptide only; (3) were given cefepime only and (4) were given a combination of magainin 2 or C-13 peptide and cefepime. […] When amikacin, an aminoglycoside, was tested in similar experiments, no in vitro bactericidal activity or in vivo protection was found.
Mice were made neutropenic five days prior to bacterial challenge. Neutropenia was induced by subcutaneous injection of 250 mg/kg Cytoxan (cyclophosphamide). The mice were challenged with 2×10^4 E. coli H16. Challenge was by intraperitoneal injection. […] The survival of the mice was monitored for a period of at least 10 days

[6] = tested on: E. coli H16; assay: In vivo protection of neutropenic mice from systemic E. coli H16 infection (C-13 peptide analogs)
From the text: The ability of C-13 peptide analogs and cefepime combinations to protect mice from a lethal infection of E. coil was examined. Mice were made neutropenic by an injection of cyclophosphamide and then challenged with E. coli. Mice were then divided into four groups: (1) mice that were given PBS; (2) were given C-13 peptide analogs only; (3) were given cefepime only; and (4) were given a combination of C-13 peptide analogs and cefepime.
(§3) Male CrL:CF1 mice were made neutropenic five days prior to bacterial challenge. Neutropenia was induced by subcutaneous injection of 250 mg/kg Cytoxan (cyclophosphamide). The mice were challenged with either 2×10^4 E. coli H16 (Table 4) or 5×10^4 A645AP by intraperitoneal injection. Mice were divided into four treatment groups: (1) PBS; (2) C-13 peptide analog (15 mg/kg); (3) cefepime (0.1 mg/kg); (4) a combination treatment of cefepime and C-13 peptide analog (0.1 mg/kg cefepime and 15 mg/kg C-13 peptide analog) that were combined prior to injection. All injections were made in PBS (0.2 ml) and were administered intramuscularly with each injection in separate legs, one and 3.5 hours after bacterial challenge. The survival of the mice was monitored for ten days and the results analyzed by the Fisher Exact test.

[7] = tested on: non K1 E. coli strain A645AP; assay: In vivo protection of neutropenic mice challenged with E. coli A645AP; conditions: neutropenic mice challenged with E. coli A645AP (5.0×10^4 organisms)
Description: as §3
C-13 peptide analog G was also examined in neutropenic mice challenged with the non K1 E. coli strain A645AP (5.0×10^4 organisms). When mice were examined for survival after bacterial challenge the following results were obtained: in group 1, where only PBS was administered 3 out of 20 mice survived; in group 2, where only G was administered, 0 out of 15 survived; in group 3 where cefepime was administered 3 out of 20 survived; and in group 4, where both G and cefepime were administered 8 out of 15 survived.

[8] = neutropenic mice, 2×10^4 E. coli H16 i.p., peptide 15 mg/kg, cefepime 0.1 mg/kg i.m. at one and 3.5 hours, ten days

CO/N=C(\C(=O)N[C@@H]1C(=O)N2C(C(=O)[O-])=C(C[N+]3(C)CCCC3)CS[C@H]12)c1csc(N)n1 [cefepime]
log10 kill [1]: Less than 0.3 log10 | synergy of antibiotic with magainin 2 [2]: synergistic | MIC [3]: 1 µg/mL (≈ 2.08 µM) | MIC [4]: 64 ug/MI | mice survived (out of total) [5]: 1 out of 20 | protection from systemic E. coli H16 infection ([6]; Fisher Exact test): failed to provide a significant level of protection | % Survival [6, 8]: 12% | Number--Survived/Total [6, 8]: 3/25 | mice survived (out of total) [7]: 3 out of 20
